Where “and” joins values, the source holds several entries; their conditions need not be identical. Equal entries are not always repeated. Numbers after ± are expanded uncertainties.
Key:
[1] = 101 kPa, Liquid
[2] = xn = mol fraction of the nth substance listed; conditions: 101 kPa, Liquid

CCC(C)O (stereo unspecified) [butan-2-ol]
[1]
Conditions | mass density [kg/m3] | speed of sound [m/s] | viscosity [mPa·s]
293.15 K | 806.84 ± 0.88 | 1230 ± 1 | 3.623 ± 0.16
298.15 K | 802.72 ± 0.89 | 1212 ± 1 | 2.995 ± 0.13
303.15 K | 798.51 ± 0.9 | 1194 ± 1 | 2.493 ± 0.11

CC(C)O [propan-2-ol] + CC1CCCC1
[2], x2 = 0
Conditions | speed of sound [m/s]
293.15 K | 1156 ± 5
298.15 K | 1139 ± 5
303.15 K | 1121 ± 5

CC1CCCC1 [methylcyclopentane] + CCCCO
speed of sound [m/s], [2]
Conditions | 293.15 K | 298.15 K | 303.15 K
x1 = 0.0485 | 1250 ± 1 | 1233 ± 1 | 1216 ± 1
x1 = 0.0993 | 1243 ± 2 | 1226 ± 2 | 1208 ± 2
x1 = 0.1973 | 1231 ± 2 | 1213 ± 2 | 1194 ± 2
x1 = 0.3038 | 1219 ± 2 | 1200 ± 2 | 1180 ± 2
x1 = 0.4036 | 1210 ± 3 | 1190 ± 3 | 1169 ± 3
x1 = 0.5055 | 1202 ± 3 | – | –
x1 = 0.5078 | – | 1181 ± 3 | 1160 ± 3
x1 = 0.6152 | 1195 ± 3 | 1173 ± 3 | 1151 ± 3
x1 = 0.7053 | 1191 ± 4 | 1169 ± 4 | 1146 ± 4
x1 = 0.8132 | 1189 ± 4 | 1166 ± 4 | 1143 ± 4
x1 = 0.9096 | 1190 ± 5 | 1166 ± 5 | 1143 ± 5
x1 = 0.9537 | 1191 ± 5 | 1168 ± 5 | 1145 ± 5
x1 = 1 | 1197 ± 5 | 1174 ± 5 | 1150 ± 5

CCO [ethanol] + CC1CCCC1
[2], x2 = 0
Conditions | mass density [kg/m3] | speed of sound [m/s]
293.15 K | 789.75 ± 0.91 | 1162 ± 1
298.15 K | 785.46 ± 0.92 | 1145 ± 1
303.15 K | 781.15 ± 0.94 | 1128 ± 1

CCCCO [butan-1-ol] + CC1CCCC1
[2], x2 = 0
Conditions | speed of sound [m/s]
293.15 K | 1257 ± 1
298.15 K | 1240 ± 1
303.15 K | 1224 ± 1

CCCC(C)O (stereo unspecified) [pentan-2-ol] + CC1CCCC1
[2], x2 = 0
Conditions | speed of sound [m/s]
293.15 K | 1250 ± 2
298.15 K | 1232 ± 2
303.15 K | 1214 ± 2

CCO [ethanol]
[1]
Conditions | mass density [kg/m3] | speed of sound [m/s] | viscosity [mPa·s]
293.15 K | 789.75 ± 0.91 | 1162 ± 1 | 1.187 ± 0.057
298.15 K | 785.46 ± 0.92 | 1145 ± 1 | 1.082 ± 0.053
303.15 K | 781.15 ± 0.94 | 1128 ± 1 | 0.987 ± 0.049

CCCO [propan-1-ol] + CC1CCCC1
[2], x2 = 0
Conditions | speed of sound [m/s]
293.15 K | 1223 ± 2
298.15 K | 1206 ± 2
303.15 K | 1189 ± 2

CC(C)O [propan-2-ol]
[1]
Conditions | mass density [kg/m3] | speed of sound [m/s] | viscosity [mPa·s]
293.15 K | 785.07 ± 0.92 | 1156 ± 5 | 2.382 ± 0.11
298.15 K | 780.9 ± 0.9 | 1139 ± 5 | 2.045 ± 0.094
303.15 K | 776.6 ± 0.95 | 1121 ± 5 | 1.763 ± 0.082

CCCCO [butan-1-ol]
[1]
Conditions | mass density [kg/m3] | speed of sound [m/s] | viscosity [mPa·s]
293.15 K | 809.5 ± 0.85 | 1257 ± 1 | 2.941 ± 0.13
298.15 K | 805.75 ± 0.86 | 1240 ± 1 | 2.571 ± 0.12
303.15 K | 801.8 ± 0.87 | 1224 ± 1 | 2.255 ± 0.1

CCC(C)O (stereo unspecified) [butan-2-ol] + CC1CCCC1
[2], x2 = 0
Conditions | speed of sound [m/s]
293.15 K | 1230 ± 1
298.15 K | 1212 ± 1
303.15 K | 1194 ± 1

CCCO [propan-1-ol]
[1]
Conditions | mass density [kg/m3] | speed of sound [m/s] | viscosity [mPa·s]
293.15 K | 803.59 ± 0.95 | 1223 ± 2 | 2.159 ± 0.099
298.15 K | 799.58 ± 0.96 | 1206 ± 2 | 1.915 ± 0.089
303.15 K | 795.55 ± 0.97 | 1189 ± 2 | 1.713 ± 0.08

CCCC(C)O (stereo unspecified) [pentan-2-ol]
[1]
Conditions | mass density [kg/m3] | speed of sound [m/s] | viscosity [mPa·s]
293.15 K | 809.04 ± 0.94 | 1250 ± 2 | 4.001 ± 0.18
298.15 K | 805.01 ± 0.95 | 1232 ± 2 | 3.273 ± 0.15
303.15 K | 800.9 ± 0.96 | 1214 ± 2 | 2.774 ± 0.12

CC1CCCC1 [methylcyclopentane] + CCC(C)O
speed of sound [m/s], [2]
Conditions | 293.15 K | 298.15 K | 303.15 K
x1 = 0.0503 | 1223 ± 2 | 1204 ± 2 | 1186 ± 2
x1 = 0.0966 | 1216 ± 2 | 1198 ± 2 | 1179 ± 2
x1 = 0.198 | 1205 ± 2 | 1185 ± 2 | 1165 ± 2
x1 = 0.3041 | 1194 ± 2 | 1173 ± 2 | 1153 ± 2
x1 = 0.4088 | 1186 ± 3 | 1164 ± 3 | 1143 ± 3
x1 = 0.5084 | 1180 ± 3 | 1158 ± 3 | 1137 ± 3
x1 = 0.5961 | 1177 ± 3 | 1155 ± 3 | 1133 ± 3
x1 = 0.7045 | 1176 ± 4 | 1154 ± 4 | 1132 ± 4
x1 = 0.8151 | 1180 ± 4 | 1157 ± 4 | 1134 ± 4
x1 = 0.9065 | 1185 ± 5 | 1162 ± 5 | 1139 ± 5
x1 = 0.9532 | 1189 ± 5 | 1166 ± 5 | 1143 ± 5
x1 = 1 | 1197 ± 5 | 1174 ± 5 | 1150 ± 5

CC1CCCC1 [methylcyclopentane]
[1]
Conditions | mass density | speed of sound [m/s] | viscosity [mPa·s]
293.15 K | 746.64 ± 2.2 kg/m3 | 1197 ± 5 | 0.504 ± 0.031
298.15 K | 741.94 ± 2.2 kg/m3 and 741.9 ± 2.2 kg/m3 | 1174 ± 5 | 0.476 ± 0.029
303.15 K | 737.21 ± 2.2 kg/m3 | 1150 ± 5 | 0.45 ± 0.028

CC1CCCC1 [methylcyclopentane] + CCO
[2]
Conditions | mass density, 293.15 K [kg/m3] | mass density, 298.15 K [kg/m3] | mass density, 303.15 K [kg/m3] | speed of sound, 293.15 K [m/s] | speed of sound, 298.15 K [m/s] | speed of sound, 303.15 K [m/s]
x1 = 0.0475 | 784.54 ± 0.94 | 780.2 ± 0.95 | 775.84 ± 0.96 | 1156 ± 1 | 1138 ± 1 | 1121 ± 1
x1 = 0.0967 | 780 ± 0.97 | 775.6 ± 0.99 | 771.3 ± 1 | 1153 ± 1 | 1135 ± 1 | 1117 ± 1
x1 = 0.2055 | 771.61 ± 1.1 | 767.12 ± 1.1 | 762.58 ± 1.1 | 1149 ± 2 | 1130 ± 2 | 1111 ± 2
x1 = 0.2984 | 766.18 ± 1.2 | 761.61 ± 1.2 | 756.99 ± 1.2 | 1150 ± 2 | 1130 ± 2 | 1110 ± 2
x1 = 0.4014 | 761.37 ± 1.3 | 756.73 ± 1.3 | 752.03 ± 1.3 | 1153 ± 3 | 1132 ± 2 | 1111 ± 2
x1 = 0.5007 | 757.5 ± 1.4 | 752.79 ± 1.4 | 748.03 ± 1.4 | 1158 ± 3 | 1136 ± 3 | 1114 ± 3
x1 = 0.6133 | 753.79 ± 1.6 | 749.03 ± 1.6 | 744.21 ± 1.6 | 1163 ± 3 | 1141 ± 3 | 1118 ± 3
x1 = 0.7115 | 751.2 ± 1.7 | 746.42 ± 1.7 | 741.58 ± 1.8 | 1168 ± 4 | 1146 ± 4 | 1123 ± 4
x1 = 0.8124 | 748.98 ± 1.9 | 744.19 ± 1.9 | 739.34 ± 1.9 | 1175 ± 4 | 1152 ± 4 | 1129 ± 4
x1 = 0.9073 | 747.36 ± 2.1 | 742.58 ± 2.1 | 737.75 ± 2.1 | 1183 ± 5 | 1159 ± 5 | 1136 ± 5
x1 = 0.9529 | 746.95 ± 2.1 | 742.17 ± 2.1 | 737.35 ± 2.1 | 1188 ± 5 | 1164 ± 5 | 1141 ± 5
x1 = 1 | 746.64 ± 2.2 | 741.94 ± 2.2 | 737.21 ± 2.2 | 1197 ± 5 | 1174 ± 5 | 1150 ± 5

CC1CCCC1 [methylcyclopentane] + CC(C)O
speed of sound [m/s], [2]
Conditions | 293.15 K | 298.15 K | 303.15 K
x1 = 0.0478 | 1154 ± 5 | 1136 ± 5 | 1118 ± 5
x1 = 0.1003 | 1152 ± 5 | 1134 ± 5 | 1115 ± 5
x1 = 0.2092 | 1150 ± 5 | 1130 ± 5 | 1110 ± 5
x1 = 0.2989 | 1150 ± 5 | 1129 ± 5 | 1108 ± 5
x1 = 0.4151 | 1150 ± 5 | 1129 ± 5 | 1108 ± 5
x1 = 0.4967 | 1152 ± 5 | 1131 ± 5 | 1109 ± 5
x1 = 0.603 | 1156 ± 6 | 1134 ± 6 | 1111 ± 6
x1 = 0.7118 | 1162 ± 6 | 1140 ± 6 | 1117 ± 6
x1 = 0.8061 | 1170 ± 6 | 1147 ± 6 | 1124 ± 6
x1 = 0.9026 | 1180 ± 7 | 1157 ± 7 | 1134 ± 7
x1 = 0.9555 | 1187 ± 7 | 1164 ± 7 | 1141 ± 7
x1 = 1 | 1197 ± 7 | 1174 ± 7 | 1150 ± 7

CC1CCCC1 [methylcyclopentane] + CCCO
speed of sound [m/s], [2]
Conditions | 293.15 K | 298.15 K | 303.15 K
x1 = 0.0475 | 1217 ± 2 | 1199 ± 2 | 1182 ± 2
x1 = 0.0967 | 1211 ± 2 | 1193 ± 2 | 1175 ± 2
x1 = 0.2055 | 1201 ± 2 | 1182 ± 2 | 1163 ± 2
x1 = 0.2984 | 1195 ± 3 | 1175 ± 3 | 1155 ± 3
x1 = 0.4014 | 1189 ± 3 | 1169 ± 3 | 1148 ± 3
x1 = 0.5007 | 1185 ± 3 | 1164 ± 3 | 1142 ± 3
x1 = 0.6133 | 1183 ± 4 | 1161 ± 4 | 1139 ± 4
x1 = 0.7115 | 1183 ± 4 | 1160 ± 4 | 1137 ± 4
x1 = 0.8124 | 1184 ± 4 | 1161 ± 4 | 1138 ± 4
x1 = 0.9073 | 1188 ± 5 | 1164 ± 5 | 1141 ± 5
x1 = 0.9529 | 1191 ± 5 | 1167 ± 5 | 1144 ± 5
x1 = 1 | 1197 ± 5 | 1174 ± 5 | 1150 ± 5

CC1CCCC1 [methylcyclopentane] + CCCC(C)O
speed of sound [m/s], [2]
Conditions | 293.15 K | 298.15 K | 303.15 K
x1 = 0.0484 | 1244 ± 2 | 1225 ± 2 | 1206 ± 2
x1 = 0.0999 | 1236 ± 2 | 1217 ± 2 | 1198 ± 2
x1 = 0.1949 | 1223 ± 2 | 1203 ± 2 | 1183 ± 2
x1 = 0.3177 | 1207 ± 3 | 1187 ± 3 | 1167 ± 3
x1 = 0.4017 | 1198 ± 3 | 1178 ± 3 | 1157 ± 3
x1 = 0.4945 | 1190 ± 3 | 1169 ± 3 | 1149 ± 3
x1 = 0.6131 | 1184 ± 4 | 1163 ± 4 | 1141 ± 4
x1 = 0.7107 | 1183 ± 4 | 1161 ± 4 | 1139 ± 4
x1 = 0.815 | 1183 ± 4 | 1161 ± 4 | 1138 ± 4
x1 = 0.9083 | 1187 ± 5 | 1164 ± 5 | 1141 ± 5
x1 = 0.9535 | 1190 ± 5 | 1167 ± 5 | 1144 ± 5
x1 = 1 | 1197 ± 5 | 1174 ± 5 | 1150 ± 5
